Tests used:
[1] = biological target: T1, Alpha1A adrenergic receptor (Homo sapiens, UniProt P35348); assay: Ca2+ flux functional assay at Alpha1A; type: cell-based; conditions: for maximal efficacy at Alpha1A: "higher" is compared to the N-methyl compound LSD; for Emax: agonist, Ca2+ flux, max dose, read-out: Alpha 1A % Act @ Max Dose
T1 construct: expressed in transfected cells
T1 sequence (P35348 1-466): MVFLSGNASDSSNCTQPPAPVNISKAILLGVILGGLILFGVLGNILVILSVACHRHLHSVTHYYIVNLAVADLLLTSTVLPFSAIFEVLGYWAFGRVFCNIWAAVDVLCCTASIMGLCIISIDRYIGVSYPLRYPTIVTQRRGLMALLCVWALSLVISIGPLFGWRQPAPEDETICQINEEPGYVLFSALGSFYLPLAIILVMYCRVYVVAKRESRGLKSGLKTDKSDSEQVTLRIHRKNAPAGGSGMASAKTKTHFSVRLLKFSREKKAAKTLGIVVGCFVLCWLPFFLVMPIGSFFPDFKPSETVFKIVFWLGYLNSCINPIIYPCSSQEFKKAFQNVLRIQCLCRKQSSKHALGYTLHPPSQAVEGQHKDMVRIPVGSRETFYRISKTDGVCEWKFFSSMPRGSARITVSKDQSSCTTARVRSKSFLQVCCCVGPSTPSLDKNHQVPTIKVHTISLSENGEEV

[2] = biological target: T2, Alpha2A adrenergic receptor (Homo sapiens, UniProt P08913); assay: Ca2+ flux functional assay at Alpha2A; type: cell-based; conditions: for maximal efficacy at Alpha2A: "higher" is compared to the N-methyl compound LSD; for Emax: agonist, Ca2+ flux, max dose, read-out: Alpha 2A % Act @ Max Dose
T2 construct: expressed in transfected cells
T2 sequence (P08913 1-465): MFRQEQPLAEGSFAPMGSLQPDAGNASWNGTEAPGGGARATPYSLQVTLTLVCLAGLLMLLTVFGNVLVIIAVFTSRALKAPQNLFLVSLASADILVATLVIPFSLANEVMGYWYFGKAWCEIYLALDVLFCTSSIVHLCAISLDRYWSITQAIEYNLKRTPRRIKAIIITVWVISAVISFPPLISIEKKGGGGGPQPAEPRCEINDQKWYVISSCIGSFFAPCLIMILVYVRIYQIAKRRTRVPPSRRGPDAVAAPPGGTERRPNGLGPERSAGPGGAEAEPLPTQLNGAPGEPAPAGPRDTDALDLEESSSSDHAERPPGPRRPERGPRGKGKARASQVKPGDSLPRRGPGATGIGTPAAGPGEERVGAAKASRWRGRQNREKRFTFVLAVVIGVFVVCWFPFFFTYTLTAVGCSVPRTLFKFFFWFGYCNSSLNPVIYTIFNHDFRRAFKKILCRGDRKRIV
Method: Functional Assays at Adrenergic and Dopamine Receptors. Agonist activity at Alpha1A, Alpha2A, D1, and D2 receptors was determined using a FLIPR Ca^2+ flux assay at WuXi AppTec (Hong Kong) Limited according to their standard protocols. Briefly, stably transfected cells expressing the receptor of interest were grown and plated in a 384 well plate and incubated at 37° C. and 5% CO2 overnight. A solution of 250 mM probenecid in 1 mL FLIPR assay buffer was prepared fresh. This was combined with a fluorescent dye (Fluo-4 Direct™) to make a final assay concentration of 2.5 mM. […] The fluorescent dye was then added to the assay plate along with assay buffer to a final volume of 40 μL. The cell plate was incubated for 50 min at 37° C. and 5% CO2 and placed into the FLIPR Tetra along with the compound plate. 10 μL of references and compounds were then transferred from the compound plate into the cell plate and the fluorescent signal was read.

D2 dopamine receptor = biological target: T3, D2 dopamine receptor (Homo sapiens, UniProt P14416); assay: Ca2+ flux functional assay at D2; type: cell-based; conditions: for Emax: agonist, Ca2+ flux, max dose, read-out: D2 % Act @ Max Dose
T3 construct: expressed in transfected cells
T3 sequence (P14416 whole entry): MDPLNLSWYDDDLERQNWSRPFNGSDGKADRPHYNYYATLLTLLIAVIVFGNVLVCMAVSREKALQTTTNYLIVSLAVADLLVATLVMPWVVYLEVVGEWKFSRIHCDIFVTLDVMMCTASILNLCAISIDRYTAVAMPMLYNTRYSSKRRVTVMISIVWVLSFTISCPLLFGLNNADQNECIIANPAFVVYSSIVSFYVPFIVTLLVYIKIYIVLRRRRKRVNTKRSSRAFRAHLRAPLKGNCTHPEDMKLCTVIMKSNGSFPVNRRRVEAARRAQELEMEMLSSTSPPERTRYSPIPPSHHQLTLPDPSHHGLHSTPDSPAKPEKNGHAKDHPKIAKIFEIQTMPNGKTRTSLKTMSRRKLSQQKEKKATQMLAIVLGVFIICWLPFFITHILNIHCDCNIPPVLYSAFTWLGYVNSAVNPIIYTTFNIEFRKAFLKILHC
Method: Disclosed compounds were tested for agonist activity at several adrenergic (Alpha1A and Alpha2A) and dopamine (D1 and D2) receptor subtypes using Ca^2+ flux functional assays, with the results summarized in Table 6. Selectivity for the 5-HT2A receptor over these other targets varied depending on the specific target and compound.
Functional Assays at Adrenergic and Dopamine Receptors. Agonist activity at Alpha1A, Alpha2A, D1, and D2 receptors was determined using a FLIPR Ca^2+ flux assay at WuXi AppTec (Hong Kong) Limited according to their standard protocols. Briefly, stably transfected cells expressing the receptor of interest were grown and plated in a 384 well plate and incubated at 37° C. and 5% CO2 overnight. A solution of 250 mM probenecid in 1 mL FLIPR assay buffer was prepared fresh. This was combined with a fluorescent dye (Fluo-4 Direct™) to make a final assay concentration of 2.5 mM. Compounds were diluted 1:3.16 for 10 points and 750 nL was added to a 384 well compound plate using ECHO along with 30 μL assay buffer. The fluorescent dye was then added to the assay plate along with assay buffer to a final volume of 40 μL. The cell plate was incubated for 50 min at 37° C. and 5% CO2 and placed into the FLIPR Tetra along with the compound plate. 10 μL of references and compounds were then transferred from the compound plate into the cell plate and the fluorescent signal was read.

C57BL/6 mice = assay: Automated mouse head twitch response (HTR) assay (video tracking); type: in vivo; conditions: sc
Method: Disclosed compounds were tested for their ability to induce a head twitch response (HTR) in mice using an automated video tracking procedure, with the results summarized in Table 8 and FIG. 4.
Animals. Adult male C57BL/6 mice aged 8-10 weeks (Jackson Labs, Bar Harbor, ME; body weight 18-25 g) were used in this experiment. Animals were group housed under environmentally controlled temperatures and 12-hour light/dark cycles (lights on between 06:00-18:00 h), with ad libitum food and water. Mice were habituated to the facility for at least 5 days prior to testing. All animal procedures were approved by the local IACUC and conducted in accordance with the NIH Guide for the Care and Use of Laboratory Animals.
Procedure. Mice were administered one dose of the drug and immediately placed into a small open field for behavioral observation. High-speed video of animals' behavior was captured continuously for 20 min. Video recordings were imported into an image processing software, which detects multiple points of interest on each animal's body, including the left and right ear. HTR events were defined as periodic deviations of ear locations from temporally averaged ear locations. Predefined thresholds for magnitude and frequency of location deviations were used to filter HTR events from random head movements. The method was validated by comparing detected events with manual (human) observations and found to have an accuracy >95%. The total number of HTR events counted during the 20-min recording and the rate in HTR/min calculated over 2-min bins were determined for each animal at each dose.
Statistical Analysis. The data points shown are the mean±standard error of the mean (SEM).

Row | SMILES | maximal efficacy at Alpha1A [1] | Emax [1] | maximal efficacy at Alpha2A [2] | Emax [2] | Emax (D2 dopamine receptor) | maximal efficacy at D2 (D2 dopamine receptor; compared to the N-methyl compound LSD) | # HTR/20 min at Most Efficacious Dose (C57BL/6 mice; 20 min recording, mean, at each compound's most efficacious dose (35*, 43*, 44*: suppressed below vehicle 14.5, dose is that of least suppression)) | Most Efficacious Dose for Peak HTR/min (C57BL/6 mice; dose giving highest peak HTR/min (35*, 43*, 44*: dose that resulted in the least suppression)) | Most Efficacious Dose for # HTR/20 min (C57BL/6 mice; dose giving most HTR/20 min (35*, 43*, 44*: dose that resulted in the least suppression)) | Peak HTR/min at Most Efficacious Dose (C57BL/6 mice; rate over 2-min bins, mean, at each compound's most efficacious dose (35*, 43*, 44*: suppressed below vehicle 1.62, dose is that of least suppression))
1 | CCCN1C[C@H](C(=O)N(CC)CC)C=C2c3cccc4[nH]cc(c34)C[C@H]21 [Compound 1, (6aR,9R)—N,N-diethyl-7-propyl-4,6,6a,7,8,9-hexahydroindolo[4,3-fg]quinoline-9-carboxamide] | substantially higher maximal efficacy | 80.6% | substantially higher maximal efficacy | 58.3% | 94.5% | substantially higher maximal efficacy | 20.625 HTR/20 min | (0.32) mg/kg, sc | (0.32) mg/kg, sc | 2.19 HTR/min
2 | CCN(CC)C(=O)[C@@H]1C=C2c3cccc4[nH]cc(c34)C[C@H]2N(Cc2ccccc2OC)C1 [Compound 10, (6aR,9R)—N,N-diethyl-7-(2-methoxybenzyl)-4,6,6a,7,8,9-hexahydroindolo[4,3-fg]quinoline-9-carboxamide] | very low efficacy agonists | 26.6% | very low efficacy agonists | 36.5% | 86.9% |  |  |  |  | 

— US20260317319A1, “NOVEL ERGOLINES AND METHODS OF TREATING MOOD DISORDERS” (Gilgamesh Pharma Inc., priority 2023, published 2026)
